According to PubChem BioAssay (NCI):
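Interpolation was linear, between the two tested concentrations surrounding the appropriate level; five concentrations were tested over 48 hours in 96-well plates. GI50 is the concentration that inhibits growth by half. TGI: total growth inhibition.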

What was measured:
Experiment in all cases: NCI anticancer screen, dose series, 48 h
[1] = tested on: 786-0 renal
[2] = tested on: SNB-75 CNS
[3] = tested on: HCC-2998 colon
[4] = tested on: UACC-257 melanoma
[5] = tested on: NCI-H226 lung
[6] = tested on: UACC-62 melanoma
[7] = tested on: CCRF-CEM leukemia
[8] = tested on: MDA-MB-231 breast
[9] = tested on: HCT-116 colon
[10] = tested on: KM12 colon

Structure (SMILES)	GI50 [1]	TGI [1]	GI50 [2]	TGI [2]	GI50 [3]	TGI [3]	GI50 [4]	TGI [4]	GI50 [5]	TGI [5]	GI50 [6]	TGI [6]	GI50 [7]	TGI [7]	GI50 [8]	TGI [8]	GI50 [9]	TGI [9]	GI50 [10]	TGI [10]
COc1ccc(C2c3ccc4ccccc4c3Oc3ncn(CCCn4ccnc4)c(=N)c32)cc1OC (centres undefined)	3.1 µM	11 µM	2.12 µM	8.13 µM	3.45 µM	11.2 µM	3.07 µM	11.4 µM	9.16 µM	27.1 µM	1.9 µM	3.74 µM	2.52 µM	6.9 µM	2.44 µM	8.01 µM	3.02 µM	11 µM	3.74 µM	13.9 µM
COc1cccc(/C=N\NC(=O)c2ccncc2)c1O	3.53 µM	30.6 µM	47.6 µM	> 100 µM	4.73 µM	> 100 µM	5 µM	> 100 µM	10.4 µM	> 100 µM	3.62 µM	34.6 µM	1.86 µM	> 100 µM	7.61 µM	> 100 µM	3.47 µM	> 100 µM	6.06 µM	> 100 µM
c1cc(OCCN2CCCC2)ccc1CNc1ccc2nc(CCC3CCCCC3)[nH]c2c1	1.57 µM	3.27 µM	1.27 µM	3.31 µM	2.03 µM	4.29 µM	1.83 µM	4.04 µM	1.51 µM	3.6 µM	1.85 µM	3.33 µM	1.47 µM	6.9 µM	1.61 µM	3.19 µM	1.43 µM	3.2 µM	2.7 µM	8.46 µM
COc1cc(OC)c(C(=O)/C=C/c2ccc(C#N)cc2)c(OC)c1	1.86 µM	6.88 µM	1.27 µM	6.62 µM	1.9 µM	6.51 µM	3.35 µM	42.2 µM	2.67 µM	> 50 µM	1.45 µM	5.78 µM	1.37 µM	15 µM	2.31 µM	9.32 µM	1.07 µM	3.82 µM	1.58 µM	6.55 µM
O=C(Nc1ccc(Cl)c(C(F)(F)F)c1)Nc1ccc(-c2cccnc2)cc1N1CCC(CO)CC1	1.84 µM	4.52 µM	2.1 µM	8.03 µM	2.31 µM	4.9 µM	3.47 µM	9.82 µM	2.68 µM	9.79 µM	2.18 µM	6.75 µM	2.9 µM	> 100 µM	1.92 µM	4.34 µM	2.53 µM	6.9 µM	2.2 µM	6.44 µM
Cc1[nH]c2ccccc2c1CO	24.5 µM	64.8 µM	7.33 µM	39.3 µM	21.2 µM	47.2 µM	24.1 µM	60.2 µM	25.8 µM	93.9 µM	17.2 µM	37.4 µM	32.8 µM	> 100 µM	18.1 µM	54.7 µM	15.2 µM	28.5 µM	4.84 µM	19.4 µM
COc1ccc(OC)c(N2CC(O)=C(c3nc4ccccc4s3)C2=N)c1	> 100 µM	> 100 µM	32 µM	> 100 µM	32.5 µM	> 100 µM	> 100 µM	> 100 µM	56.9 µM	> 100 µM	26.4 µM	> 100 µM	0.541 µM	> 100 µM	20.6 µM	> 100 µM	57.5 µM	> 100 µM	39.1 µM	> 100 µM
Nc1nc(Sc2ccc([N+](=O)[O-])c3nonc23)c2ncn(C3OC(CO)C(O)C3O)c2n1 (centres undefined)	0.766 µM	14.2 µM	0.886 µM	> 100 µM	0.777 µM	3.49 µM		> 44.8 µM	2.2 µM	29 µM	0.478 µM	3.59 µM	0.198 µM	6.65 µM	0.549 µM	14.8 µM	0.428 µM	13.6 µM	2.89 µM	> 64.1 µM
Cc1nnn(C)c1-c1cnc2c3ccc(C(C)(C)O)cc3n([C@H](c3ccccc3)C3CCOCC3)c2c1	0.0707 µM	21.5 µM	< 0.01 µM	20.3 µM	0.0356 µM	3.98 µM	< 0.0132 µM	31.3 µM	0.356 µM	23.4 µM	< 0.01 µM	12.7 µM	0.0663 µM	> 100 µM	< 0.01 µM	24.7 µM	0.0149 µM	16.4 µM	0.141 µM	> 91.4 µM
COc1ccc(Nc2ncc(I)c(NCCCNC(=O)C3CCC3)n2)cc1	5.58 µM	29.2 µM	0.464 µM	7.75 µM	13.5 µM	67.3 µM	15 µM	93 µM	3.91 µM	67.1 µM	17.2 µM	43.2 µM	4.96 µM	> 100 µM	1.66 µM	5.31 µM	4.01 µM	20.6 µM	3.42 µM	> 100 µM
